Data taken from a melting point compilation (Tetko et al.; mined from patent text by program, amines drawn as free bases though some values may be those of a salt).

SMILES	melting point [°C]
CCOC(=O)c1cn(NC=O)c2cc(Cl)c(F)cc2c1=O	263 to 264
CCOC(=O)C(=Cc1cccn2cc(C(F)(F)F)nc12)N=[N+]=[N-]	140 to 142
Cc1cc(N2N=CCNC2=O)cc(Cl)c1C(C#N)c1ccc(Cl)nc1 (stereo not given)	211 to 212
C[C@@H]1N(C)C(C)(C)CO[C@@]1(O)c1cccc(Cl)c1	128 to 129
CCCNC(=O)N1CCC(O)(Cc2c3c(nn2CC)c(N)nc2ccccc23)CC1	208 to 210
C#Cc1ccnc(-c2ccc(Br)cc2[N+](=O)[O-])c1	166 to 171
CCCCCCCCNC(=O)N(CCCCCSc1nc(-c2ccccc2)c(-c2ccccc2)[nH]1)c1ccccc1	74 to 76
COC(=O)C1C=CCn2c(=O)n(CCl)c(=O)n21 (stereo not given)	164 to 165
Cc1cccc(C2CCN(C(=O)CCC(=O)c3ccc4c(c3)CCNCC4)CC2)c1	91 to 93
Fc1ccc(Cn2c(NC3CCN(CCOc4nc5cccnc5s4)CC3)nc3ccccc32)cc1	151
COCCCn1c(O)nc2ccc(C)cc21	118 to 120
COc1cc(OC)nc(C(C#N)c2ccccc2[N+](=O)[O-])n1 (stereo not given)	88 to 89
CC(=O)N1c2ccccc2SC1C#N (stereo not given)	92 to 93
CCc1cn(C2CCC(CNC(=O)Cc3c(Cl)cccc3Cl)O2)c(=O)[nH]c1=O (stereo not given)	237 to 238
CCc1cc(OCc2ccccc2)c2c(Cl)cccc2n1	78 to 80
CCn1ncc2c1ncc1c(=O)[nH]c3nc(SC)nn3c12	> 300
Cc1oc(-c2ccccc2)nc1COc1nn(Cc2ccc(Oc3ccccc3)cc2)cc1C(N)=O	158 to 159
CCOC(=O)C(C)(C)Oc1ccc(C=CC(=O)c2ccccc2)cc1	68 to 70
CC(=O)SCCC(=O)N(C)C	118 to 121
Cc1cccc(C(=O)c2ccc(OCC(=O)O)c(Cl)c2Cl)c1	173 to 175

SMILES	melting point [°C]
OCc1c(F)ccc(-n2cccc2)c1F	< 60
Nc1nc2nc(NCCCN3CCOCC3)ncc2cc1-c1c(Cl)cccc1Cl	224 to 230
COc1c(Cl)ccc(Cl)c1C(=O)NO	150
CCCc1n[nH]c(CCC)n1	69 to 70
Cc1c(Cl)c(Cl)nc2c1NC(=O)c1cccnc1N2C1CC1	> 290
CN(Cc1ccc(COc2cccc3c2CN(C2CCC(=O)NC2=O)C3=O)cc1)c1ccccc1 (stereo not given)	201 to 203
Fc1cccc(Nc2nc(Cl)nc(NC3CCCCCC3)n2)c1	148
COc1ccc(OC)c(Nc2nc(-c3cccc([N+](=O)[O-])c3)cs2)c1	154
Cc1oc(-c2ccccc2)nc1CCOc1ccc(NC(=O)C(=O)O)cc1	196 to 198
O=C(C1=C(c2ccccc2)c2ccc(O)cc2CC1)c1ccc(O)cc1	205 to 207
CC(C)n1c(=O)n(C)c2cc(-c3ncc(C(F)(F)F)cc3Cl)ccc21	108 to 109
Nc1cc(F)c(-c2cccnc2)c(F)c1	141 to 142
Cc1cccc(NC(=O)OCc2ccccn2)c1CNc1cccn2c(C)c(C)nc12	163 to 165
CC(C)(C)OC(=O)N[C@H](Cc1ccccc1)C(=O)N1CCC[C@H]1C(=O)NC(Cc1ccc(C#N)cc1)P(=O)(Oc1ccccc1)Oc1ccccc1 (stereo not given in full)	85 to 90
Cc1cccc2nc3c(c(C)nn3-c3ccccn3)c(Cl)c12	167 to 169
COc1ccc(CNc2nnc(N3CCC(O)C3)c3ccc(Cl)cc23)cc1Cl (stereo not given)	191 to 193
Nc1cccc2c(Br)cccc12	65 to 66
Cc1cc(N)cc(C)c1-c1ccc(-c2c(C)cc(N)cc2C)o1	144 to 146
CCOc1nc(=O)c2cc(C(F)(F)F)cc([N+](=O)[O-])c2s1	146 to 148
O=C(C=Cc1cccnc1)NCCCCC1CCN(C(=O)N(c2ccccc2)c2ccccc2)CC1	132 to 134
